# Laboratory results taken from US8741849B2, “Kinase inhibitors and uses thereof” (priority 2007, dated 2014).
# Legend:
# [1] = tested on: Ca2+/calmodulin-dependent protein kinase II (CaMKII); details: cited from earlier work
# PKA = details: 1 μM AIP; cited from earlier work
# PKC = details: 1 μM AIP; cited from earlier work
# CaMKIV = target: T1, CaMKIV (Homo sapiens, UniProt Q16566); details: 1 μM AIP; cited from earlier work
# T1 sequence (Q16566 1-473): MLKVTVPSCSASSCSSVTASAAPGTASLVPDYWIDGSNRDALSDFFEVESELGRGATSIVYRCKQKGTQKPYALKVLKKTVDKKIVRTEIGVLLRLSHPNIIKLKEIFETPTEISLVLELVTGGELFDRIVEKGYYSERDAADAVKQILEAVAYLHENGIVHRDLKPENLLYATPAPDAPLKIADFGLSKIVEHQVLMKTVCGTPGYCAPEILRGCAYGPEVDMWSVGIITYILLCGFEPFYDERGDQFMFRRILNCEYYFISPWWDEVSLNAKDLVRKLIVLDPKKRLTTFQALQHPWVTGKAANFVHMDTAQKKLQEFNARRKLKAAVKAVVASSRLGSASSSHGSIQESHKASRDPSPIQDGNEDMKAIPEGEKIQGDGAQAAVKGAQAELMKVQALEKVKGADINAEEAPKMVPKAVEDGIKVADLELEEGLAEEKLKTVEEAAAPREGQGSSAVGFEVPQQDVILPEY
# A549 lung cancer cells = assay: Toxicity testing on cancer cell lines (MTT); type: cell-based; details: 72 hours, n=4, read-out: Cell Line IC50, A549
# Procedure: (§1) The seven cell lines were: estrogen dependent MCF-7 breast cancer cells, non estrogen dependent MDA 231 breast cancer cells, SF 539 central nervous system cancer cells, HT29 colon cancer cells, Paca 2 pancreatic cancer cells, PC3 prostate cancer cells, and A549 lung cancer cells. For each cell line, exponentially growing cells were trypsinized and seeded into individual wells of a 96-well plate. Cells were maintained in a humidified, 5% CO2 incubator at 37° C. for 24 hours. The next day, fresh media was added along with 1 μl of a stock solution of peptide to give final peptide concentrations of 0.3 μM, 1 μM, 3 μM, 10 μM, 30 μM, and 100 μM (n=4). Doxorubicin was tested as a positive control. After incubating the cells for 72 hours, to each well was added 20 μl of 0.5% MTT {3-([…])-2,5 diphenyl tetrazolium bromide} solution. The plates then were incubated for an additional 4 hours, at which time the absorbance at 570 nm was measured for each well using a microplate reader. The absorbance was plotted as function of peptide concentration, and IC50 values were calculated for each peptide for each cell line.
# HT29 colon cancer cells = assay: Toxicity testing on cancer cell lines (MTT); type: cell-based; details: 72 hours, n=4, read-out: Cell Line IC50, HT29
# Procedure: as §1
# [2] = tested on: PC3 prostate cancer cells; assay: Toxicity testing on cancer cell lines (MTT); type: cell-based; details: 72 hours, n=4, read-out: Cell Line IC50, PC3
# Procedure: as §1
# [3] = tested on: Paca 2 pancreatic cancer cells; assay: Toxicity testing on cancer cell lines (MTT); type: cell-based; details: 72 hours, n=4, read-out: Cell Line IC50, Paca 2
# Procedure: as §1
# [4] = tested on: SF 539 central nervous system cancer cells; assay: Toxicity testing on cancer cell lines (MTT); type: cell-based; details: 72 hours, n=4, read-out: Cell Line IC50, SF 539
# Procedure: as §1
# [5] = tested on: estrogen dependent MCF-7 breast cancer cells; assay: Toxicity testing on cancer cell lines (MTT); type: cell-based; details: 72 hours, n=4, read-out: Cell Line IC50, MCF-7
# Procedure: as §1
# [6] = tested on: non estrogen dependent MDA 231 breast cancer cells; assay: Toxicity testing on cancer cell lines (MTT); type: cell-based; details: 72 hours, n=4, read-out: Cell Line IC50, MDA 231
# Procedure: as §1
# [7] = tested on: MCF-7 breast cancer cells; assay: Evaluation of apoptosis (Hoescht, Annexin V, propidium iodide staining); type: cell-based; details: MCF-7 cells, 24 hours, 3 μM or 10 μM
# Procedure: MCF-7 breast cancer cells were seeded in individual wells of a 96-well plate and were maintained for 24 hours in a humidified, 5% CO2 incubator at 37° C. The next day, fresh media was added along with 1 μl of a stock solution of KIP peptide […] [SEQ ID NO: 166] to give a final concentration of 3 μM or 10 μM (n=4). After incubating the cells for 24 hours, cells were treated with Hoescht dye for nuclear staining, propidium iodide to stain for DNA from necrotic cells, and Annexin V to visualize apoptotic cells.
# PKC β 1 (h) = target: T2, PKC β 1 (h) (Homo sapiens, UniProt P05771); assay: kinase profiler assay (radiometric); type: biochemical; details: @ = 30 μm peptide; less than 100 = kinase inhibition, greater than 100 = stimulation
# T2 construct: purchased Upstate (Millipore) KinaseProfiler service
# From the text: (§2) KIP peptides […] [SEQ ID NO: 142], […] [SEQ ID NO: 173], and […] [SEQ ID NO: 163] were utilized to profile a variety of different kinases. The kinase profiler assay services provided by Upstate, a part of Millipore Corporation (Billerica, Mass.), were utilized to conduct the kinase profiles. The kinase profiler assays, which are radiometric, are based on measuring the amount of radioactive transfer from an ATP (y-^33P-ATP) to a substrate peptide using known concentrations of kinase enzyme, inhibitor, ATP, and buffer at defined time points and temperatures. Details on the reaction conditions for each kinase are available at www.millipore.com/drugdiscovery/dd3/KinaseProfiler. […] ROCK-1(h) (5-10 mU) was incubated with 8 mM MOPS pH 7.0, 0.2 mM EDTA, 30 i.IM of the peptide […] [SEQ ID NO: 189], 10 mM Mg acetate and y-^33P-ATP (specific activity approximately 500 cpm/pmol, concentration as required) in a final reaction volume of 25 pl. The reaction was initiated by the addition of the MgATP mixture in the absence and presence of inhibitor compounds. After incubation for 40 minutes at room temperature, the reaction was stopped by the addition of 5) 11 of a 3% phosphoric acid solution. 10 pl of the reaction mixture then was spotted onto a P30 filtermat. The filtermat was washed three times for 5 minutes in 75 mM phosphoric acid, once in methanol, dried and counted by scintillation counting. Where the kinase is uninhibited, the kinase phosphorylates a positively charged substrate with radioactive ATP, which then binds to a negatively charged filter membrane. Scintillation counts (radioactivity) directly correlate with kinase activity. […] All profile data less than 100 indicate kinase inhibition while data greater than 100 indicate kinase stimulation.
# PKG1α (h) = target: T3, PKG1α (h) (Homo sapiens, UniProt Q13976); assay: kinase profiler assay (radiometric); type: biochemical; details: @ = 30 μm peptide; less than 100 = kinase inhibition, greater than 100 = stimulation
# T3 construct: purchased Upstate (Millipore) KinaseProfiler service
# T3 sequence (Q13976 1-671): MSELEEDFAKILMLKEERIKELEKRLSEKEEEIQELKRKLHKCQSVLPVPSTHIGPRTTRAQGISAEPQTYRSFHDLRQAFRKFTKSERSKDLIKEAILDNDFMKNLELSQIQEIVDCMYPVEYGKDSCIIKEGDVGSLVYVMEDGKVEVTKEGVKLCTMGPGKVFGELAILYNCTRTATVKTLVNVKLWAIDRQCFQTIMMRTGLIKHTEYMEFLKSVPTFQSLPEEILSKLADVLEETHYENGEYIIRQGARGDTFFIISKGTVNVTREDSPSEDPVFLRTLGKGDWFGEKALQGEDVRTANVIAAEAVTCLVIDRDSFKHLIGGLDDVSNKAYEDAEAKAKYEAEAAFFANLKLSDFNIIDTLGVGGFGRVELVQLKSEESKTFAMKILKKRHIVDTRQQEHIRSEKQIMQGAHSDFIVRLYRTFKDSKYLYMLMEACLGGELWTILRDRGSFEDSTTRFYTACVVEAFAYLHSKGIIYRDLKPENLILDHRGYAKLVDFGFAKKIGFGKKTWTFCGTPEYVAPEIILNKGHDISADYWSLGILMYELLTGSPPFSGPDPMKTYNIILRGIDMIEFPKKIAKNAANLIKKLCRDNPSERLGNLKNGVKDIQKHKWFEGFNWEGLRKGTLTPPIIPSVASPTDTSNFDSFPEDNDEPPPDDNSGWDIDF
# From the text: as §2
# T2 sequence (P05771 whole entry): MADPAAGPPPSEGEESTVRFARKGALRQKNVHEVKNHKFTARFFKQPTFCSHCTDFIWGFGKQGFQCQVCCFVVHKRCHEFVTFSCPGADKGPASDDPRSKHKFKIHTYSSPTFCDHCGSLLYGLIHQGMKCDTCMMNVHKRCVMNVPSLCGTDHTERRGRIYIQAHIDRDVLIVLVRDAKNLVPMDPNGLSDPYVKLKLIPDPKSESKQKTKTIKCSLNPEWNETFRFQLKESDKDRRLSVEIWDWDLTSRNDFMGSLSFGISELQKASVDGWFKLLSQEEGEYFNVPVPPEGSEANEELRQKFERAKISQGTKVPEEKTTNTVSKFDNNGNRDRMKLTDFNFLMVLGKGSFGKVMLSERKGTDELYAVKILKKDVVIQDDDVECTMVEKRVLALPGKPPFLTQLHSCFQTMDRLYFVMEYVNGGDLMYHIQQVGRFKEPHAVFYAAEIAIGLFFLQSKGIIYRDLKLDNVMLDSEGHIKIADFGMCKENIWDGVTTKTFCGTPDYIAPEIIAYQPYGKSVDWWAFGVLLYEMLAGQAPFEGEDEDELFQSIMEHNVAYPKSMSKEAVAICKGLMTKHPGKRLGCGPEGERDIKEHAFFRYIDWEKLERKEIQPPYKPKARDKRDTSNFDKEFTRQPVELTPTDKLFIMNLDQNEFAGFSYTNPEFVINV
molecule,measurement,setting,value
KKALRRQEAVDAL [AIP],CaMKII activity,[1]; 1 μM AIP,completely inhibited
same,IC50,[1],0.1 µM
same,PKA activity,PKA,not affected
same,PKC activity,PKC,not affected
same,CaMKIV activity,CaMKIV,not affected
CC[C@H](C)[C@H](NC(=O)[C@H](CCCCN)NC(=O)[C@H](CCCCN)NC(=O)[C@H](CC(C)C)NC(=O)[C@H](Cc1c[nH]c2ccccc12)NC(=O)[C@H](C)NC(=O)[C@H](CCCCN)NC(=O)[C@@H](NC(=O)[C@H](CCCNC(=N)N)NC(=O)[C@H](CCCNC(=N)N)NC(=O)[C@@H](N)Cc1c[nH]cn1)[C@@H](C)CC)C(=O)N[C@@H](CCCCN)C(=O)N[C@@H](C)C(=O)N[C@@H](CC(C)C)C(=O)N[C@@H](C)C(=O)N[C@@H](CCCNC(=N)N)C(=O)N[C@@H](CCC(N)=O)C(=O)N[C@@H](CC(C)C)C(=O)NCC(=O)N[C@H](C(=O)N[C@@H](C)C(=O)N[C@@H](C)C(=O)O)C(C)C [Peptide 1],IC50,A549 lung cancer cells,8.7 µM
same,IC50,HT29 colon cancer cells,6.7 µM
same,IC50,[2],6 µM
same,IC50,[3],9 µM
same,IC50,[4],4.3 µM
same,IC50,[5],1.6 µM
same,IC50,[6],9.3 µM
same,Annexin V staining relative to propidium iodide staining (apoptosis),[7],annexin V staining was much more intense than propidium iodide staining
WLRRIKAWLRRIKALNRQLGVAA,"Profile-1, PKC β 1 (h)",PKC β 1 (h),8
same,"Profile-1, PKG1α (h)",PKG1α (h),16
